Read-outs that look alike come from different tables or passages of the source. Peptide text beside a SMILES is read from it. * marks the point of attachment. C16 diacid = O=C(O)CCCCCCCCCCCCCCC(=O)*; Stearoyl = CCCCCCCCCCCCCCCCCC(=O)*; Palmitoyl = CCCCCCCCCCCCCCCC(=O)*
Experiments:
[1] = molecular target: T1, human GIP receptor (Homo sapiens, UniProt P48546); assay: cAMP accumulation assay, agonism (ligand alone); format: cell-based; conditions: Table 1; for Emax: COS-7, intrinsic cAMP activity
T1 construct: host or cells: COS-7, transient transfection (calcium phosphate), cDNA in pCMV-Script
T1 sequence (P48546 22-466): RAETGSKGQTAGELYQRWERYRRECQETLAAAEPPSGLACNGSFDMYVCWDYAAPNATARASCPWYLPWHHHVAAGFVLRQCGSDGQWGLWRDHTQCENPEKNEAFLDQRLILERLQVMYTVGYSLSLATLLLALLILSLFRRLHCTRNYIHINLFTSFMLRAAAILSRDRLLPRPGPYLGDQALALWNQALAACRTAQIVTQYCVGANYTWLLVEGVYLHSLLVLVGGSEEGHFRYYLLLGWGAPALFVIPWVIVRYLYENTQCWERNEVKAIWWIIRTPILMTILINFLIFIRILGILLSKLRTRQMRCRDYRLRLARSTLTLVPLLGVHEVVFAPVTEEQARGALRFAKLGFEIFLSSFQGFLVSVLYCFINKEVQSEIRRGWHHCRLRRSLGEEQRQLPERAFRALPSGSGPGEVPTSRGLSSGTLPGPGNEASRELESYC

[2] = molecular target: T1, human GIP receptor; assay: cAMP accumulation assay, antagonism of a GIP-mediated cAMP response (50-80% of max); format: cell-based; conditions: transiently transfected COS-7 cells
Experimental: The day after, the cells were washed twice with Hepes buffered saline (HBS) buffer and incubated with HBS and 1 mM 3-isobutyl-1-methylxanthine (IBMX) for 30 min at 37° C. […] The HitHunter™ cAMP XS assay (DiscoveRx) was carried out according to the manufacturer's instructions.

[3] = Table 1 and text, read-out: cAMP antagonism nM (IC50, antagonistic potency)
[4] = COS-7 cells, read-out: cAMP agonism nM (EC50)

SMILES | Emax ([1]; COS-7 cells) [%] | IC50 [2, 3] [nM] | EC50 [1, 4] [nM] | EC50 ([1]; given as log EC50 (negative sign), read-out: cAMP agonism EC50 (log) (converted)) [nM] | IC50 ([2]; given as log IC50 (negative sign), Table 1, read-out: cAMP antagonism log (converted)) [nM]
CCCCCCCCCCCC(=O)NCCCC[C@H](NC(=O)[C@H](CCC(N)=O)NC(=O)[C@H](C)NC(=O)[C@H](CC(C)C)NC(=O)[C@H](CC(C)C)NC(=O)[C@H](Cc1c[nH]c2ccccc12)NC(=O)[C@H](CC(N)=O)NC(=O)[C@@H](NC(=O)[C@H](Cc1ccccc1)NC(=O)[C@H](CC(=O)O)NC(=O)[C@H](CCC(N)=O)NC(=O)[C@H](CCC(N)=O)NC(=O)[C@H](Cc1c[nH]cn1)NC(=O)[C@@H](NC(=O)[C@H](CCCCN)NC(=O)[C@H](CC(=O)O)NC(=O)[C@H](CCSC)NC(=O)[C@H](C)NC(=O)[C@@H](NC(=O)[C@H](CO)NC(=O)[C@H](Cc1ccc(O)cc1)NC(=O)[C@H](CC(=O)O)NC(=O)[C@H](CO)NC(=O)[C@@H](NC(=O)[C@H](Cc1ccccc1)NC(=O)[C@@H](NC(=O)CNC(=O)[C@@H](N)CCC(=O)O)[C@@H](C)O)[C@@H](C)CC)[C@@H](C)CC)[C@@H](C)CC)C(C)C)C(N)=O [AT103, [hGIP(3-30)NH2—C12/30]] | 7 | 121 | – | – | –
CCCCCCCCCCCCCCCC(=O)NCCCC[C@H](NC(=O)[C@H](CC(=O)O)NC(=O)[C@H](CCSC)NC(=O)[C@H](C)NC(=O)[C@@H](NC(=O)[C@H](CO)NC(=O)[C@H](Cc1ccc(O)cc1)NC(=O)[C@H](CC(=O)O)NC(=O)[C@H](CO)NC(=O)[C@@H](NC(=O)[C@H](Cc1ccccc1)NC(=O)[C@@H](N)[C@@H](C)O)[C@@H](C)CC)[C@@H](C)CC)C(=O)N[C@H](C(=O)N[C@@H](Cc1c[nH]cn1)C(=O)N[C@@H](CCC(N)=O)C(=O)N[C@@H](CCC(N)=O)C(=O)N[C@@H](CC(=O)O)C(=O)N[C@@H](Cc1ccccc1)C(=O)N[C@H](C(=O)N[C@@H](CC(N)=O)C(=O)N[C@@H](Cc1c[nH]c2ccccc12)C(=O)N[C@@H](CC(C)C)C(=O)N[C@@H](CC(C)C)C(=O)N[C@@H](C)C(=O)N[C@@H](CCC(N)=O)C(=O)N[C@@H](CCCCN)C(N)=O)C(C)C)[C@@H](C)CC [AT125, [hGIP(5-30)NH2—C16/16]] | 0 | 131 | – | – | –
CCCCCCCCCCCCCCCCCC(=O)NCCCC[C@H](NC(=O)[C@H](CC(=O)O)NC(=O)[C@H](CCSC)NC(=O)[C@H](C)NC(=O)[C@@H](NC(=O)[C@H](CO)NC(=O)[C@H](Cc1ccc(O)cc1)NC(=O)[C@H](CC(=O)O)NC(=O)[C@H](CO)NC(=O)[C@@H](NC(=O)[C@H](Cc1ccccc1)NC(=O)[C@@H](N)[C@@H](C)O)[C@@H](C)CC)[C@@H](C)CC)C(=O)N[C@H](C(=O)N[C@@H](Cc1c[nH]cn1)C(=O)N[C@@H](CCC(N)=O)C(=O)N[C@@H](CCC(N)=O)C(=O)N[C@@H](CC(=O)O)C(=O)N[C@@H](Cc1ccccc1)C(=O)N[C@H](C(=O)N[C@@H](CC(N)=O)C(=O)N[C@@H](Cc1c[nH]c2ccccc12)C(=O)N[C@@H](CC(C)C)C(=O)N[C@@H](CC(C)C)C(=O)N[C@@H](C)C(=O)N[C@@H](CCC(N)=O)C(=O)N[C@@H](CCCCN)C(N)=O)C(C)C)[C@@H](C)CC [AT128, [hGIP(5-30)NH2—C18/16]] | 25 | 114 | – | – | –
CCCCCCCCCCCCCCCC(=O)NCCCC[C@H](NC(=O)[C@@H](NC(=O)[C@H](CCCCN)NC(=O)[C@H](CC(=O)O)NC(=O)[C@H](CCSC)NC(=O)[C@H](C)NC(=O)[C@@H](NC(=O)[C@H](CO)NC(=O)[C@H](Cc1ccc(O)cc1)NC(=O)[C@H](CC(=O)O)NC(=O)[C@H](CO)NC(=O)[C@@H](NC(=O)[C@H](Cc1ccccc1)NC(=O)[C@@H](N)[C@@H](C)O)[C@@H](C)CC)[C@@H](C)CC)[C@@H](C)CC)C(=O)N[C@@H](CCC(N)=O)C(=O)N[C@@H](CCC(N)=O)C(=O)N[C@@H](CC(=O)O)C(=O)N[C@@H](Cc1ccccc1)C(=O)N[C@H](C(=O)N[C@@H](CC(N)=O)C(=O)N[C@@H](Cc1c[nH]c2ccccc12)C(=O)N[C@@H](CC(C)C)C(=O)N[C@@H](CC(C)C)C(=O)N[C@@H](C)C(=O)N[C@@H](CCC(N)=O)C(=O)N[C@@H](CCCCN)C(N)=O)C(C)C [AT145, [hGIP(5-30)NH2[H18K]-C16/18]] (H-TFISDYSIAMDKIK(Palmitoyl)QQDFVNWLLAQK-NH2; N-terminus assumed) | 16 | 66 | 33 | – | –
CC[C@H](C)[C@H](NC(=O)[C@H](CO)NC(=O)[C@H](Cc1ccc(O)cc1)NC(=O)[C@H](CC(=O)O)NC(=O)[C@H](CO)NC(=O)[C@@H](NC(=O)[C@H](Cc1ccccc1)NC(=O)[C@@H](N)[C@@H](C)O)[C@@H](C)CC)C(=O)N[C@@H](C)C(=O)N[C@@H](CCSC)C(=O)N[C@@H](CC(=O)O)C(=O)N[C@@H](CCCNC(=N)N)C(=O)N[C@H](C(=O)N[C@@H](CCCCNC(=O)CCCCCCCCCCCCCCC(=O)O)C(=O)N[C@@H](CCC(N)=O)C(=O)N[C@@H](CCC(N)=O)C(=O)N[C@@H](CC(=O)O)C(=O)N[C@@H](Cc1ccccc1)C(=O)N[C@H](C(=O)N[C@@H](CC(N)=O)C(=O)N[C@@H](Cc1c[nH]c2ccccc12)C(=O)N[C@@H](CC(C)C)C(=O)N[C@@H](CC(C)C)C(=O)N[C@@H](C)C(=O)N[C@@H](CCC(N)=O)C(=O)N[C@@H](CCCNC(=N)N)C(N)=O)C(C)C)[C@@H](C)CC [AT157, [hGIP(5-30)NH2[K16R; H18K; K30R]-C16diacid/18]] (H-TFISDYSIAMDRIK(C16 diacid)QQDFVNWLLAQR-NH2; N-terminus assumed) | 12 | 7 | – | 10 | 7.94
CCCCCCCCCCCCCCCCCC(=O)NCCCC[C@H](NC(=O)[C@@H](NC(=O)[C@H](CCCCN)NC(=O)[C@H](CC(=O)O)NC(=O)[C@H](CCSC)NC(=O)[C@H](C)NC(=O)[C@@H](NC(=O)[C@H](CO)NC(=O)[C@H](Cc1ccc(O)cc1)NC(=O)[C@H](CC(=O)O)NC(=O)[C@H](CO)NC(=O)[C@@H](NC(=O)[C@H](Cc1ccccc1)NC(=O)[C@@H](N)[C@@H](C)O)[C@@H](C)CC)[C@@H](C)CC)[C@@H](C)CC)C(=O)N[C@@H](CCC(N)=O)C(=O)N[C@@H](CCC(N)=O)C(=O)N[C@@H](CC(=O)O)C(=O)N[C@@H](Cc1ccccc1)C(=O)N[C@H](C(=O)N[C@@H](CC(N)=O)C(=O)N[C@@H](Cc1c[nH]c2ccccc12)C(=O)N[C@@H](CC(C)C)C(=O)N[C@@H](CC(C)C)C(=O)N[C@@H](C)C(=O)N[C@@H](CCC(N)=O)C(=O)N[C@@H](CCCCN)C(N)=O)C(C)C [AT161, [hGIP(5-30)NH2[H18K]-C18/18]] (H-TFISDYSIAMDKIK(Stearoyl)QQDFVNWLLAQK-NH2; N-terminus assumed) | 7 | 252 | – | – | –
CC[C@H](C)[C@H](NC(=O)[C@H](CO)NC(=O)[C@H](Cc1ccc(O)cc1)NC(=O)[C@H](CC(=O)O)NC(=O)[C@H](CO)NC(=O)[C@@H](NC(=O)[C@H](Cc1ccccc1)NC(=O)[C@H](CCCCNC(=O)CCCCCCCCCCCCCCC(=O)O)NC(=O)CNC(=O)[C@@H](N)CCC(=O)O)[C@@H](C)CC)C(=O)N[C@@H](C)C(=O)N[C@@H](CCSC)C(=O)N[C@@H](CC(=O)O)C(=O)N[C@@H](CCCCN)C(=O)N[C@H](C(=O)N[C@@H](Cc1c[nH]cn1)C(=O)N[C@@H](CCC(N)=O)C(=O)N[C@@H](CCC(N)=O)C(=O)N[C@@H](CC(=O)O)C(=O)N[C@@H](Cc1ccccc1)C(=O)N[C@H](C(=O)N[C@@H](CC(N)=O)C(=O)N[C@@H](Cc1c[nH]c2ccccc12)C(=O)N[C@@H](CC(C)C)C(=O)N[C@@H](CC(C)C)C(=O)N[C@@H](C)C(=O)N[C@@H](CCC(N)=O)C(=O)N[C@@H](CCCCN)C(N)=O)C(C)C)[C@@H](C)CC [AT296, [hGIP(3-30)NH2[T5K]-C16diacid/5]] | 6.7 | 14 | 2.6 | – | –
